Values of other authors, collected in US10398653B2, “Solid preparations containing tofogliflozin and process of producing the same” (CHUGAI SEIYAKU KABUSHIKI KAISHA, priority 2013, dated 2019).

Target: T1, SGLT2 (Homo sapiens, UniProt P31639)
T1 sequence (P31639 1-672): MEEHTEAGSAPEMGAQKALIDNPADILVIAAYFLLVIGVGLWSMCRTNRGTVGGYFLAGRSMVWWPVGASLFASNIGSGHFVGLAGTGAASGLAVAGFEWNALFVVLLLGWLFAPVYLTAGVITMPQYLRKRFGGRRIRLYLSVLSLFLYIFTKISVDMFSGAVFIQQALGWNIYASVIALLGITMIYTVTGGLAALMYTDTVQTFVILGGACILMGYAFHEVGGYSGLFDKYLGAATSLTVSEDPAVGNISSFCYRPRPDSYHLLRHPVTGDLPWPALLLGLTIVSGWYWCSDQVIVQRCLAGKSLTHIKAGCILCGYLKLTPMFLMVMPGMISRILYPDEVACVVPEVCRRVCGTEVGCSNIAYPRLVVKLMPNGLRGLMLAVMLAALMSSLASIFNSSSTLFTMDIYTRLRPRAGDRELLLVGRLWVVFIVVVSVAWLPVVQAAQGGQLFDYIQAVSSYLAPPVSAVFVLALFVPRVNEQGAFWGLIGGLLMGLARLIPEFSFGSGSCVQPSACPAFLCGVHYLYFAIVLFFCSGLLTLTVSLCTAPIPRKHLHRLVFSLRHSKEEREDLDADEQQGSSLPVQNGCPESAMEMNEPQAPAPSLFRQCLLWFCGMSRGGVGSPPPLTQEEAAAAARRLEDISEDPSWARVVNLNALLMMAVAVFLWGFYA
Details: as stated in Patent Document 1

Inhibitory activity against SGLT2: excellent inhibitory activity
Compound: CCc1ccc(Cc2ccc3c(c2)[C@]2(OC3)O[C@H](CO)[C@@H](O)[C@H](O)[C@H]2O)cc1 [tofogliflozin, 1,1-Anhydro-1-C-[5-(4-ethylphenyl)methyl-2-(hydroxymethyl)phenyl]-β-D-glucopyranose]
